# Measurements taken from patent US20260262643A1, “HERBICIDAL BENZOXAZINES” (FMC CORPORATION, priority 2022, published 2026).
# Tests used:
# [1] = test system: barnyardgrass; test: Test A postemergence; assay type: in vivo, Echinochloa crusgalli; details: 1000 g ai/ha, Postemergence; 0 to 100 scale
# How it was run: (§1)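 Visual injury ratings on a 0–100 scale (100 = complete control) versus untreated controls, taken 10 days after treatment in greenhouse. Preemergence: directed soil spray onto seeded loam/sand. Postemergence: foliar application at one- to two-leaf stage, plants 2–10 cm. Formulation: non-phytotoxic solvent plus surfactant.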
# [2] = test system: Pigweed, Redroot; test: Test A preemergence; assay type: in vivo, Amaranthus retroflexus; details: 1000 g ai/ha, 0 to 100 scale (0 no effect, 100 complete control), 10 days
# Source text: (§2) Seeds of plant species selected from barnyardgrass (Echinochloa crusgalli), blackgrass (Alopecurus myosuroides), corn (Zea mays), foxtail, giant (giant foxtail, Setaria faberi), goosegrass (Eleusine indica), kochia (Bassia scoparia), oat, wild (wild oat, Avena fatua), pigweed, palmer (palmer amaranth, palmer pigweed, Amaranthus palmeri), Pigweed, Redroot (redroot pigweed, Amaranthus retroflexus), ragweed (common ragweed, Ambrosia artemisiifolia), ryegrass, Italian (italian ryegrass, Lolium multiflorum), soybean (Glycine max), and wheat (Triticum aestivum) were planted into a blend of loam soil and sand and treated preemergence with a directed soil spray using test chemicals formulated in a non-phytotoxic solvent mixture which included a surfactant. At the same time, plants selected from these crops and weed species and also galium (catchweed bedstraw, Galium aparine) and horseweed (Erigeron canadensis) were planted in pots containing the same blend of loam soil and sand and treated with postemergence applications of test chemicals formulated in the same manner. Plants ranged in height from 2 to 10 cm and were in the one- to two-leaf stage for the postemergence treatment. Treated plants and untreated controls were maintained in a greenhouse for 10 days, after which time all treated plants were compared to untreated controls and visually evaluated for injury. Plant response ratings, summarized in Table A, are based on a 0 to 100 scale where 0 is no effect and 100 is complete control. A dash (-) response means no test result.
# [3] = test system: galium; test: Test A postemergence; assay type: in vivo, Galium aparine; details: 1000 g ai/ha, Postemergence; 0 to 100 scale
# How it was run: as §1
# [4] = test system: ryegrass, Italian; test: Test A postemergence; assay type: in vivo, Lolium multiflorum; details: 1000 g ai/ha, Postemergence; 0 to 100 scale
# How it was run: as §1
# [5] = test system: rice; test: Test B flooded paddy test; assay type: in vivo, Oryza sativa; details: 250 g ai/ha, Flood, 13 days, 0 to 100 scale (0 no effect, 100 complete control)
# How it was run: (§3)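 Application into standing water (3 cm above soil) at the two-leaf stage; flood depth held constant. Evaluation: day 13, visual comparison with controls, 0 = no injury, 100 = complete control.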
# [6] = test system: barnyardgrass; test: Test A preemergence; assay type: in vivo, Echinochloa crusgalli; details: 1000 g ai/ha, 0 to 100 scale (0 no effect, 100 complete control), 10 days
# How it was run: as §1
# [7] = test system: barnyardgrass; test: Test B flooded paddy test; assay type: in vivo, Echinochloa crus-galli; details: 250 g ai/ha, Flood, 13 days, 0 to 100 scale (0 no effect, 100 complete control)
# How it was run: as §3
# [8] = test system: Pigweed, Redroot; test: Test A postemergence; assay type: in vivo, Amaranthus retroflexus; details: 1000 g ai/ha, Postemergence; 0 to 100 scale
# Source text: as §2
# [9] = test system: ragweed; test: Test A postemergence; assay type: in vivo, Ambrosia artemisiifolia; details: 1000 g ai/ha, Postemergence; 0 to 100 scale
# How it was run: as §1
# [10] = test system: wheat; test: Test A postemergence; assay type: in vivo, Triticum aestivum; details: 1000 g ai/ha, Postemergence; 0 to 100 scale
# How it was run: as §1
# [11] = test system: ducksalad; test: Test B flooded paddy test; assay type: in vivo, Heteranthera limosa; details: 250 g ai/ha, Flood, 13 days, 0 to 100 scale (0 no effect, 100 complete control)
# How it was run: as §3
# [12] = test system: sedge, umbrella; test: Test B flooded paddy test; assay type: in vivo, Cyperus difformis; details: 250 g ai/ha, Flood, 13 days, 0 to 100 scale (0 no effect, 100 complete control)
# How it was run: as §3
# [13] = test system: corn; test: Test A postemergence; assay type: in vivo, Zea mays; details: 1000 g ai/ha, Postemergence; 0 to 100 scale
# How it was run: as §1
# [14] = test system: kochia; test: Test A postemergence; assay type: in vivo, Bassia scoparia; details: 1000 g ai/ha, Postemergence; 0 to 100 scale
# How it was run: as §1
# [15] = test system: foxtail, giant; test: Test A preemergence; assay type: in vivo, Setaria faberi; details: 1000 g ai/ha, 0 to 100 scale (0 no effect, 100 complete control), 10 days
# How it was run: as §1
# [16] = test system: ryegrass, Italian; test: Test A preemergence; assay type: in vivo, Lolium multiflorum; details: 1000 g ai/ha, 0 to 100 scale (0 no effect, 100 complete control), 10 days
# How it was run: as §1
# [17] = test system: blackgrass; test: Test A postemergence; assay type: in vivo, Alopecurus myosuroides; details: 1000 g ai/ha, Postemergence; 0 to 100 scale
# How it was run: as §1
# [18] = test system: kochia; test: Test A preemergence; assay type: in vivo, Bassia scoparia; details: 1000 g ai/ha, 0 to 100 scale (0 no effect, 100 complete control), 10 days
# How it was run: as §1
# [19] = test system: foxtail, giant; test: Test A postemergence; assay type: in vivo, Setaria faberi; details: 1000 g ai/ha, Postemergence; 0 to 100 scale
# How it was run: as §1
# [20] = test system: ragweed; test: Test A preemergence; assay type: in vivo, Ambrosia artemisiifolia; details: 1000 g ai/ha, 0 to 100 scale (0 no effect, 100 complete control), 10 days
# How it was run: as §1
Compound,"Plant response rating, Barnyardgrass [1]","Plant response rating, Pigweed, Redroot [2]","Plant response rating, Galium [3]","Plant response rating, Ryegrass, Italian [4]","Plant response rating, Rice [5]","Plant response rating, Barnyardgrass [6]","Plant response rating, Barnyardgrass [7]","Plant response rating, Pigweed, Redroot [8]","Plant response rating, Ragweed [9]","Plant response rating, Wheat [10]","Plant response rating, Ducksalad [11]","Plant response rating, Sedge, Umbrella [12]","Plant response rating, Corn [13]","Plant response rating, Kochia [14]","Plant response rating, Foxtail, Giant [15]","Plant response rating, Ryegrass, Italian [16]","Plant response rating, Blackgrass [17]","Plant response rating, Kochia [18]","Plant response rating, Foxtail, Giant [19]","Plant response rating, Ragweed [20]"
CC1CN(C(=O)c2cccc(-n3cncn3)c2)c2cccc(F)c2O1 (stereo not drawn) [Compound 20],90,80,90,70,0,90,0,30,30,70,85,35,60,30,100,100,70,80,90,80
C[C@H]1CN(C(=O)c2cccc(-c3ccncc3)c2)c2cccc(Cl)c2O1 [Compound 123],20,30,50,30,,40,,60,0,0,,,0,20,0,30,20,30,10,30
C[C@H]1CN(C(=O)c2cccc(-n3cccn3)c2)c2cccc(Cl)c2O1 [Compound 129],20,20,30,0,,20,,70,0,0,,,0,10,0,50,30,20,10,0
C[C@H]1CN(C(=O)c2cccc(-n3cnnc3)c2)c2cccc(Cl)c2O1 [Compound 128],30,0,30,0,,0,,0,30,0,,,0,0,50,60,30,40,20,0
Cc1cccc2c1OC(C)CN2C(=O)c1ccc(C#N)c(-n2cncn2)c1 (stereo not drawn) [Compound 29],70,60,,50,0,90,0,50,0,60,0,0,80,10,100,90,70,20,90,0
CCC1CN(C(=O)c2ccnc(-n3cncn3)c2)c2cccc(I)c2O1 (stereo not drawn) [Compound 17],0,100,0,0,,0,,0,0,0,,,0,10,0,0,0,30,0,0
C#Cc1cccc2c1OC(C)CN2C(=O)c1cccc(-n2cncn2)c1 (stereo not drawn) [Compound 30],20,100,,70,0,30,0,30,0,40,0,0,10,10,80,100,70,20,40,0
CC1CN(C(=O)c2cccc(-n3cncn3)c2)c2cccc(Br)c2O1 (stereo not drawn) [Compound 25],50,100,,90,0,90,0,40,0,70,35,0,70,50,100,100,90,30,90,0
